According to patent US10493060B2, “Spirocyclic compounds” (ZENO ROYALTIES & MILESTONES, LLC, priority 2015, dated 2019):

Legend:
Activated ERK2 = Activated ERK2 (Homo sapiens (Human), UniProt P28482); experiment: Active ERK2 kinase assay (Mobility Shift Assay); format: biochemical
Protocol: (§1) Activated ERK1 and ERK2 activity was determined in a Mobility Shift Assay (MSA) format as follows: Compound and kinase solution were prepared with assay buffer (20 mM HEPES, 0.01% Triton X-100, 2 mM DTT, pH7.5) and mixed and incubated in for 30 mins at rt. ERK1 & ERK2 were then activated by the addition of Fl-Substrate, ATP and metal solution and incubated for 1 h at rt. After 1 h, the reaction was terminated by the addition of […] of Termination Buffer (QuickScout Screening Assist MSA; Carna Biosciences) to the well. The reaction mixture was applied to LabChip™ system (PerkinElmer), and the product and substrate peptide peaks were separated, analyzed and quantitated. The kinase reaction is evaluated by the product ratio calculated from peak heights of product (P) and substrate (S) peptides (P/(P+S)).

Activated ERK1 = Activated ERK1 (Homo sapiens (Human), UniProt P27361); experiment: Active ERK1 kinase assay (Mobility Shift Assay); format: biochemical
Protocol: as §1

Activated ERK1, sequence (P27361 whole entry): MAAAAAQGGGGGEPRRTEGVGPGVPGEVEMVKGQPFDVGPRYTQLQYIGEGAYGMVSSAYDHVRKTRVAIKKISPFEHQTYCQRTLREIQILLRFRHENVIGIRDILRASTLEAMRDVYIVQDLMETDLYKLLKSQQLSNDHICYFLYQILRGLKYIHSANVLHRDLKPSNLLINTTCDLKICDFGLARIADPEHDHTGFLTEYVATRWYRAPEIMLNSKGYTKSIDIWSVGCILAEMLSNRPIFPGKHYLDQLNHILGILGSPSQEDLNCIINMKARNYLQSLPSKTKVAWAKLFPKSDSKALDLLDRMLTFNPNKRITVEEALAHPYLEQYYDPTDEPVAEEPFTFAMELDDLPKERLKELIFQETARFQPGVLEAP
Activated ERK2, sequence (P28482 whole entry): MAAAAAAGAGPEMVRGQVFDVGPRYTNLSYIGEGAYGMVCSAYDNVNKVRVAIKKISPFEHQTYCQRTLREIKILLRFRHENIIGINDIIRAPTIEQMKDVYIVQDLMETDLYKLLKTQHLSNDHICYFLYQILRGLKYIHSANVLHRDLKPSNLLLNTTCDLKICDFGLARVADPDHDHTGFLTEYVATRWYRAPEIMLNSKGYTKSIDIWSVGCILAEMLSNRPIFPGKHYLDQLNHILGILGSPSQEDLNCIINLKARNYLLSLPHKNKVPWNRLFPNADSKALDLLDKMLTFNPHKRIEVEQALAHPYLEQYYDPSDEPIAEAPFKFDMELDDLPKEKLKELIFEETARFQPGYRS

IC50 (Activated ERK2) [µM]	IC50 (Activated ERK1) [µM]	SMILES
≤ 0.05		CC(C)Oc1ccc(-c2n[nH]c3ccc(N4CC[C@]5(CCN(CC(=O)N6CC=C(c7ccc(-c8ncn(C)n8)c(F)c7)CC6)C5)C4=O)cc23)cn1 [Example 56, (S)-7-(2-(4-(3-Fluoro-4-(1-methyl-1H-1,2,4-triazol-3-yl)phenyl)-3,6-dihydropyridin-1(2H)-yl)-2-oxoethyl)-2-(3-(6-isopropoxypyridin-3-yl)-1H-indazol-5-yl)-2,7-diazaspiro[4.4]nonan-1-one]
≤ 0.05		Cc1noc(-c2ccc(C3=CCN(C(=O)CN4CC[C@]5(CCN(c6ccc7[nH]nc(-c8ccc(OC(C)C)nc8)c7c6)C5=O)C4)CC3)cc2)n1 [Example 54, (S)-2-(3-(6-Isopropoxypyridin-3-yl)-1H-indazol-5-yl)-7-(2-(4-(4-(3-methyl-1,2,4-oxadiazol-5-yl)phenyl)-3,6-dihydropyridin-1(2H)-yl)-2-oxoethyl)-2,7-diazaspiro[4.4]nonan-1-one]
0.05 to 0.25		CCNc1n[nH]c2ccc(N3CC[C@]4(CCN(CC(=O)N5CC=C(c6ccc(-c7ncn(C)n7)cc6)CC5)C4)C3=O)cc12 [Example 53, (S)-2-(3-(Ethylamino)-1H-indazol-5-yl)-7-(2-(4-(4-(1-methyl-1H-1,2,4-triazol-3-yl)phenyl)-3,6-dihydropyridin-1(2H)-yl)-2-oxoethyl)-2,7-diazaspiro[4.4]nonan-1-one]
≤ 0.05		CC(C)Oc1ccc(-c2n[nH]c3ccc(N4CC[C@]5(CCN(CC(=O)N6CC=C(c7ccc(-c8ncn(C)n8)cc7F)CC6)C5)C4=O)cc23)cn1 [Example 55, (S)-7-(2-(4-(2-Fluoro-4-(1-methyl-1H-1,2,4-triazol-3-yl)phenyl)-3,6-dihydropyridin-1(2H)-yl)-2-oxoethyl)-2-(3-(6-isopropoxypyridin-3-yl)-1H-indazol-5-yl)-2,7-diazaspiro[4.4]nonan-1-one]
≤ 0.05		Cn1cnc(-c2ccc(C3=CCN(C(=O)CN4CC[C@]5(CCN(c6ccc7[nH]nc(C(F)F)c7c6)C5=O)C4)CC3)cc2)n1 [Example 52, (S)-2-(3-(Difluoromethyl)-1H-indazol-5-yl)-7-(2-(4-(4-(1-methyl-1H-1,2,4-triazol-3-yl)phenyl)-3,6-dihydropyridin-1(2H)-yl)-2-oxoethyl)-2,7-diazaspiro[4.4]nonan-1-one]
≤ 0.05		Cc1ccc(-c2n[nH]c3ccc(N4CC[C@]5(CCN(CC(=O)N6CC=C(c7ccc(-c8ncn(C)n8)cc7)CC6)C5)C4=O)cc23)cn1 [Example 57, (S)-7-(2-(4-(4-(1-Methyl-1H-1,2,4-triazol-3-yl)phenyl)-3,6-dihydropyridin-1(2H)-yl)-2-oxoethyl)-2-(3-(6-methylpyridin-3-yl)-1H-indazol-5-yl)-2,7-diazaspiro[4.4]nonan-1-one]
≤ 0.05		Cn1cnc(-c2ccc(C3=CCN(C(=O)CN4CC[C@]5(CCN(c6ccc7[nH]nc(-c8ccc(S(C)(=O)=O)cc8)c7c6)C5=O)C4)CC3)cc2)n1 [Example 58, (S)-7-(2-(4-(4-(1-Methyl-1H-1,2,4-triazol-3-yl)phenyl)-3,6-dihydropyridin-1(2H)-yl)-2-oxoethyl)-2-(3-(4-(methylsulfonyl)phenyl)-1H-indazol-5-yl)-2,7-diazaspiro[4.4]nonan-1-one]

Continued, molecule first:

SMILES	IC50 (Activated ERK2) [µM]	IC50 (Activated ERK1) [µM]
CC(C)Oc1ccc(-c2n[nH]c3ccc(N4CC[C@]5(CCN(CC(=O)N6CC=C(c7ccc(-c8ncn(C9CC9)n8)cc7)CC6)C5)C4=O)cc23)cn1 [Example 50, (S)-7-(2-(4-(4-(1-Cyclopropyl-1H-1,2,4-triazol-3-yl)phenyl)-3,6-dihydropyridin-1(2H)-yl)-2-oxoethyl)-2-(3-(6-isopropoxypyridin-3-yl)-1H-indazol-5-yl)-2,7-diazaspiro[4.4]nonan-1-one]	≤ 0.05	
CCn1cnc(-c2ccc(C3=CCN(C(=O)CN4CC[C@]5(CCN(c6ccc7[nH]nc(-c8ccc(OC(C)C)nc8)c7c6)C5=O)C4)CC3)cc2)n1 [Example 46, (S)-7-(2-(4-(4-(1-Ethyl-1H-1,2,4-triazol-3-yl)phenyl)-3,6-dihydropyridin-1(2H)-yl)-2-oxoethyl)-2-(3-(6-isopropoxypyridin-3-yl)-1H-indazol-5-yl)-2,7-diazaspiro[4.4]nonan-1-one]	≤ 0.05	
Cn1cnc(-c2ccc(C3=CCN(C(=O)CN4CC[C@]5(CCN(c6ccc7[nH]nc(C#N)c7c6)C5=O)C4)CC3)cc2)n1 [Example 51, (S)-5-(7-(2-(4-(4-(1-Methyl-1H-1,2,4-triazol-3-yl)phenyl)-3,6-dihydropyridin-1(2H)-yl)-2-oxoethyl)-1-oxo-2,7-diazaspiro[4.4]nonan-2-yl)-1H-indazole-3-carbonitrile]	≤ 0.05	
CC(C)Oc1ccc(-c2n[nH]c3ccc(N4CCCC5(CCN(CC(=O)N6CC=C(c7ccc(-c8ncn(C)n8)cc7)CC6)C5)C4=O)cc23)cn1 (stereo not drawn) [Example 5, 7-(3-(6-Isopropoxypyridin-3-yl)-1H-indazol-5-yl)-2-(2-(4-(4-(1-methyl-1H-1,2,4-triazol-3-yl)phenyl)-3,6-dihydropyridin-1 (2H)-yl)-2-oxoethyl)-2,7-diazaspiro[4.5]decan-6-one]	0.05 to 0.25	≥ 0.25
COCCn1cnc(-c2ccc(C3=CCN(C(=O)CN4CC[C@]5(CCN(c6ccc7[nH]nc(-c8ccc(OC(C)C)nc8)c7c6)C5=O)C4)CC3)cc2)n1 [Example 49, (S)-2-(3-(6-Isopropoxypyridin-3-yl)-1H-indazol-5-yl)-7-(2-(4-(4-(1-(2-methoxyethyl)-1H-1,2,4-triazol-3-yl)phenyl)-3,6-dihydropyridin-1(2H)-yl)-2-oxoethyl)-2,7-diazaspiro[4.4]nonan-1-one]	≤ 0.05	
Cc1cc(-c2n[nH]c3ccc(N4CCC5(CCN(CC(=O)N6CC=C(c7ccc(-c8ncn(C)n8)cc7)CC6)C5)C4=O)cc23)ccn1 (stereo not drawn) [Example 6, 7-(2-(4-(4-(1-Methyl-1H-1,2,4-triazol-3-yl)phenyl)-3,6-dihydropyridin-1(2H)-yl)-2-oxoethyl)-2-(3-(2-methylpyridin-4-yl)-1H-indazol-5-yl)-2,7-diazaspiro[4.4]nonan-1-one]	≤ 0.05	≤ 0.05
Cn1cc(-c2n[nH]c3ccc(N4CC[C@]5(CCN(CC(=O)N6CC=C(c7ccc(-c8ncn(C)n8)cc7)CC6)C5)C4=O)cc23)cn1 [Example 48, (S)-7-(2-(4-(4-(1-Methyl-1H-1,2,4-triazol-3-yl)phenyl)-3,6-dihydropyridin-1 (2H)-yl)-2-oxoethyl)-2-(3-(1-methyl-1H-pyrazol-4-yl)-1H-indazol-5-yl)-2,7-diazaspiro[4.4]nonan-1-one]	≤ 0.05	
CCNc1nnc(-c2ccc(C3=CCN(C(=O)CN4CC[C@]5(CCN(c6ccc7[nH]nc(-c8ccc(OC(C)C)nc8)c7c6)C5=O)C4)CC3)cc2)s1 [Example 19, (S)-7-(2-(4-(4-(5-(Ethylamino)-1,3,4-thiadiazol-2-yl)phenyl)-3,6-dihydropyridin-1(2H)-yl)-2-oxoethyl)-2-(3-(6-isopropoxypyridin-3-yl)-1H-indazol-5-yl)-2,7-diazaspiro[4.4]nonan-1-one]	≤ 0.05	≤ 0.05
CC(C)Oc1ccc(-c2n[nH]c3ccc(N4CC[C@]5(CCN(CC(=O)N6CCC(c7ccc(-c8ncn(C)n8)cc7)CC6)C5)C4=O)cc23)cn1 [Example 16, (S)-2-(3-(6-Isopropoxypyridin-3-yl)-1H-indazol-5-yl)-7-(2-(4-(4-(1-methyl-1H-1,2,4-triazol-3-yl)phenyl)piperidin-1-yl)-2-oxoethyl)-2,7-diazaspiro[4.4]nonan-1-one]	≤ 0.05	≤ 0.05
CC(C)Oc1ccc(-c2n[nH]c3ccc(N4CCC5(CCN(CC(=O)N6CCN(c7ccc(-c8ncn(C)n8)cc7)CC6)C5)C4)cc23)cn1 (stereo not drawn) [Example 2, 2-(7-(3-(6-Isopropoxypyridin-3-yl)-1H-indazol-5-yl)-2,7-diazaspiro[4.4]nonan-2-yl)-1-(4-(4-(1-methyl-1H-1,2,4-triazol-3-yl)phenyl)piperazin-1-yl)ethan-1-one]	≥ 0.25	≥ 0.25
CC(C)Oc1ccc(-c2n[nH]c3ccc(N4CC[C@@]5(CCN(CC(=O)N6CC=C(c7ccc(-c8ncn(C)n8)cc7)CC6)C5)C4=O)cc23)cn1 [Example 11, (R)-2-(3-(6-Isopropoxypyridin-3-yl)-1H-indazol-5-yl)-7-(2-(4-(4-(1-methyl-1H-1,2,4-triazol-3-yl)phenyl)-3,6-dihydropyridin-1 (2H)-yl)-2-oxoethyl)-2,7-diazaspiro[4.4]nonan-1-one]	≥ 0.25	≥ 0.25
Cn1cnc(-c2ccc(C3=CCN(C(=O)CN4CC[C@]5(CCN(c6ccc7[nH]nc(C8CC8)c7c6)C5=O)C4)CC3)cc2)n1 [Example 45, (S)-2-(3-Cyclopropyl-1H-indazol-5-yl)-7-(2-(4-(4-(1-methyl-1H-1,2,4-triazol-3-yl)phenyl)-3,6-dihydropyridin-1(2H)-yl)-2-oxoethyl)-2,7-diazaspiro[4.4]nonan-1-one]	≤ 0.05	
Cn1cnc(-c2ccc(N3CCN(C(=O)CN4CC[C@]5(CCN(c6ccc7[nH]nc(C8CC8)c7c6)C5=O)C4)CC3)cc2)n1 [Example 44, (S)-2-(3-Cyclopropyl-1H-indazol-5-yl)-7-(2-(4-(4-(1-methyl-1H-1,2,4-triazol-3-yl)phenyl)piperazin-1-yl)-2-oxoethyl)-2,7-diazaspiro[4.4]nonan-1-one]	0.05 to 0.25	
CC(C)Oc1ccc(-c2n[nH]c3ccc(N4CC[C@]5(CCN(CC(=O)N6CC=C(c7ccc(-c8ncn(CCO)n8)cc7)CC6)C5)C4=O)cc23)cn1 [Example 47, (S)-7-(2-(4-(4-(1-(2-Hydroxyethyl)-1H-1,2,4-triazol-3-yl)phenyl)-3,6-dihydropyridin-1(2H)-yl)-2-oxoethyl)-2-(3-(6-isopropoxypyridin-3-yl)-1H-indazol-5-yl)-2,7-diazaspiro[4.4]nonan-1-one]	≤ 0.05	
